Results on 14 compounds are retold here after PubChem BioAssay (NCI).

Molecules are shown by their SMILES.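 1) Cells in 96-well plates. 2) Compound, 48 h, 5 concentrations. 3) Linear interpolation between surrounding doses. 4) Unreached endpoint = highest concentration. At the TGI there is no net growth.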

Test systems include OVCAR-3 ovarian; SNB-75 CNS; BT-549 breast; SK-MEL-28 melanoma; UACC-62 melanoma; COLO 205 colon; OVCAR-5 ovarian; NCI/ADR-RES ovarian; HCC-2998 colon; TK-10 renal.
Test in all cases: NCI tumour cell line growth inhibition, 48 h

On to `Cc1cccc2c1C(=O)[C@@](C)([C@]1(C)Nc3cccc(C)c3C1=O)N2`, for which the TGI in the experiment with OVCAR-3 ovarian, in the experiment on SNB-75 CNS, with BT-549 breast, in the experiment on SK-MEL-28 melanoma, with UACC-62 melanoma and in the experiment with COLO 205 colon was more than 100 µM in each case. Also, the TGI in the experiment with OVCAR-5 ovarian, in the experiment with NCI/ADR-RES ovarian and in the experiment on HCC-2998 colon was more than 100 µM throughout.
With `CN(C)c1ccc(/C=C2\C[C@H]3[C@@H]4CCc5cc(O)ccc5[C@H]4CC[C@]3(C)C2=O)cc1`, the TGI in the experiment with OVCAR-3 ovarian was more than 100 µM; in the experiment with SNB-75 CNS, more than 100 µM; in the experiment with SK-MEL-28 melanoma, more than 100 µM; in the experiment on UACC-62 melanoma it was 86.1 µM; with COLO 205 colon, more than 100 µM; in the experiment on TK-10 renal, more than 100 µM. The TGI in the experiment on OVCAR-5 ovarian, in the experiment with NCI/ADR-RES ovarian and in the experiment on HCC-2998 colon was more than 100 µM in each case.
With `O=C(NC/C=C/Br)NC1CCNc2ccccc21` (centres undefined), the TGI with OVCAR-3 ovarian was more than 100 µM; in the experiment with SNB-75 CNS it was more than 100 µM; in the experiment on SK-MEL-28 melanoma it was more than 100 µM; with UACC-62 melanoma it was 58.7 µM; in the experiment on COLO 205 colon, 37.7 µM; in the experiment on TK-10 renal it was more than 100 µM. The TGI in the experiment on OVCAR-5 ovarian was more than 100 µM; in the experiment with NCI/ADR-RES ovarian, 99.7 µM; in the experiment with HCC-2998 colon, 59 µM.
In the case of `CCOC(=O)c1cn(C)nc1N/C(C)=C\C(=O)c1ccccc1`, the TGI with OVCAR-3 ovarian, with BT-549 breast, in the experiment with SK-MEL-28 melanoma, with UACC-62 melanoma, with COLO 205 colon and with TK-10 renal was more than 100 µM each time. The TGI in the experiment with OVCAR-5 ovarian, with NCI/ADR-RES ovarian and in the experiment on HCC-2998 colon was more than 100 µM each time.
As for `C=C1C(=O)O[C@H]2C/C(C=O)=C\[C@H]3O[C@H]3/C(COC(=O)C(C)C)=C/CC12` (some centres undefined), the TGI in the experiment with OVCAR-3 ovarian was 19.3 µM; in the experiment on BT-549 breast, 24.8 µM; in the experiment with SK-MEL-28 melanoma, 14.8 µM; in the experiment with UACC-62 melanoma, 5.42 µM; with COLO 205 colon, 5.91 µM; in the experiment on TK-10 renal it was 25.7 µM. The TGI with OVCAR-5 ovarian worked out at 7.48 µM; in the experiment with NCI/ADR-RES ovarian, 33.8 µM; in the experiment on HCC-2998 colon, 27.2 µM.
`COC(=O)C1=C(C)NC2(C)OC(C)(O)C(C(C)=O)C12C(C)=O` (centres undefined): the TGI in the experiment on OVCAR-3 ovarian, with SNB-75 CNS, in the experiment with BT-549 breast, with SK-MEL-28 melanoma, with UACC-62 melanoma and in the experiment on COLO 205 colon was more than 100 µM each time. Also, the TGI with TK-10 renal, in the experiment on OVCAR-5 ovarian and with NCI/ADR-RES ovarian was more than 100 µM throughout.
In the case of `CCCCCCCCCCCCCCCCNc1ccn(C2CC(OP(=O)(O)OCC3OC(n4cc(CC)c(=O)[nH]c4=O)CC3O)C(CO)O2)c(=O)n1` (centres undefined), the TGI was more than 100 µM with OVCAR-3 ovarian; 81.1 µM in the experiment on SNB-75 CNS; 68.3 µM with SK-MEL-28 melanoma; 35.8 µM in the experiment on UACC-62 melanoma; 92.4 µM with COLO 205 colon; more than 100 µM with TK-10 renal. Further, the TGI stood at 62.8 µM with OVCAR-5 ovarian, 84.9 µM in the experiment with NCI/ADR-RES ovarian and 88 µM in the experiment on HCC-2998 colon.
For the compound `CN(C)C=Nc1nncc2n[nH]nc12`, the TGI in the experiment with OVCAR-3 ovarian, in the experiment on SNB-75 CNS, with BT-549 breast, in the experiment with SK-MEL-28 melanoma, in the experiment with UACC-62 melanoma and in the experiment with COLO 205 colon was more than 100 µM in each case. The TGI in the experiment with TK-10 renal, with OVCAR-5 ovarian and with NCI/ADR-RES ovarian was more than 100 µM each time.
`S=C(Nc1ccc2c(c1)Cc1ccccc1-2)Nc1ccc2c(c1)Cc1ccccc1-2`: the TGI in the experiment on OVCAR-3 ovarian, with BT-549 breast, in the experiment on SK-MEL-28 melanoma, in the experiment on UACC-62 melanoma, in the experiment on COLO 205 colon and in the experiment on TK-10 renal was more than 100 µM each time. Besides, the TGI with OVCAR-5 ovarian, in the experiment with NCI/ADR-RES ovarian and with HCC-2998 colon was more than 100 µM throughout.
As for `O=c1/c(=C/c2ccc(-c3ccc(Cl)cc3Cl)o2)sc2n1[C@@H](c1ccc3c(c1)OCO3)C=C(c1cc(F)c(Cl)cc1Cl)N=2`, the TGI in the experiment with SNB-75 CNS is more than 100 µM; in the experiment with BT-549 breast, more than 100 µM; in the experiment on SK-MEL-28 melanoma, more than 100 µM; in the experiment with UACC-62 melanoma, more than 100 µM; in the experiment with COLO 205 colon it was more than 100 µM; with TK-10 renal, 59 µM. For the same compound, the TGI in the experiment on OVCAR-5 ovarian and with NCI/ADR-RES ovarian was more than 100 µM each time.
As for `COc1ccc(C2NC(=O)Nc3c2c(=O)oc2c3ccc3ccccc32)cc1` (centres undefined), the TGI in the experiment with OVCAR-3 ovarian was more than 100 µM; in the experiment with SNB-75 CNS it was 75.8 µM; with BT-549 breast, more than 100 µM; with SK-MEL-28 melanoma, more than 100 µM; with UACC-62 melanoma, more than 100 µM; in the experiment on COLO 205 colon it was more than 100 µM. Also, the TGI in the experiment on TK-10 renal, in the experiment on OVCAR-5 ovarian and in the experiment with NCI/ADR-RES ovarian was more than 100 µM throughout.
For the compound `C/C(=C\CNc1nc(Cl)nc2nc[nH]c12)CO`, the TGI in the experiment with OVCAR-3 ovarian, with SNB-75 CNS, with SK-MEL-28 melanoma, in the experiment on UACC-62 melanoma, in the experiment with COLO 205 colon and with TK-10 renal was more than 100 µM each time. Further, the TGI in the experiment on OVCAR-5 ovarian, in the experiment on NCI/ADR-RES ovarian and with HCC-2998 colon was more than 100 µM in each case.
For `C=CCn1c(=O)c2ccccc2[n+]2c(-c3cccc([N+](=O)[O-])c3)csc12`, the TGI is more than 100 µM in the experiment on OVCAR-3 ovarian; 69.9 µM in the experiment on SNB-75 CNS; more than 100 µM in the experiment on SK-MEL-28 melanoma; more than 100 µM in the experiment with UACC-62 melanoma; 98.6 µM in the experiment on COLO 205 colon; more than 100 µM in the experiment with TK-10 renal. For the same compound, the TGI was more than 100 µM in the experiment with OVCAR-5 ovarian, 68.2 µM with NCI/ADR-RES ovarian and more than 100 µM with HCC-2998 colon.
Consider `Cc1nnc2sc(-c3ccc([N+](=O)[O-])o3)nn12`, for which the TGI worked out at 25.4 µM with OVCAR-3 ovarian; 22.5 µM in the experiment on BT-549 breast; 22.1 µM in the experiment on UACC-62 melanoma; 27.5 µM in the experiment on COLO 205 colon; 28.6 µM in the experiment on TK-10 renal; 36.7 µM in the experiment with OVCAR-5 ovarian. In addition, the TGI in the experiment on NCI/ADR-RES ovarian amounted to 39 µM; in the experiment on HCC-2998 colon, 25 µM.
